Source: patent US11739098B2 (BRISTOL-MYERS SQUIBB COMPANY, priority 2017, dated 2023)

Legend:
Format in all cases: cell-based
[1] = target: T1, human TLR7 (Homo sapiens, UniProt Q9NYK1); assay: TLR7 inhibition reporter assay (HEK-Blue cells, SEAP reporter, gardiquimod stimulation); conditions: HEK-Blue cells overexpressing human TLR7, SEAP reporter, gardiquimod 7.5 μM
T1 construct: host or cells: HEK-Blue cells (HEK293-derived reporter line)
T1 sequence (Q9NYK1 27-1049): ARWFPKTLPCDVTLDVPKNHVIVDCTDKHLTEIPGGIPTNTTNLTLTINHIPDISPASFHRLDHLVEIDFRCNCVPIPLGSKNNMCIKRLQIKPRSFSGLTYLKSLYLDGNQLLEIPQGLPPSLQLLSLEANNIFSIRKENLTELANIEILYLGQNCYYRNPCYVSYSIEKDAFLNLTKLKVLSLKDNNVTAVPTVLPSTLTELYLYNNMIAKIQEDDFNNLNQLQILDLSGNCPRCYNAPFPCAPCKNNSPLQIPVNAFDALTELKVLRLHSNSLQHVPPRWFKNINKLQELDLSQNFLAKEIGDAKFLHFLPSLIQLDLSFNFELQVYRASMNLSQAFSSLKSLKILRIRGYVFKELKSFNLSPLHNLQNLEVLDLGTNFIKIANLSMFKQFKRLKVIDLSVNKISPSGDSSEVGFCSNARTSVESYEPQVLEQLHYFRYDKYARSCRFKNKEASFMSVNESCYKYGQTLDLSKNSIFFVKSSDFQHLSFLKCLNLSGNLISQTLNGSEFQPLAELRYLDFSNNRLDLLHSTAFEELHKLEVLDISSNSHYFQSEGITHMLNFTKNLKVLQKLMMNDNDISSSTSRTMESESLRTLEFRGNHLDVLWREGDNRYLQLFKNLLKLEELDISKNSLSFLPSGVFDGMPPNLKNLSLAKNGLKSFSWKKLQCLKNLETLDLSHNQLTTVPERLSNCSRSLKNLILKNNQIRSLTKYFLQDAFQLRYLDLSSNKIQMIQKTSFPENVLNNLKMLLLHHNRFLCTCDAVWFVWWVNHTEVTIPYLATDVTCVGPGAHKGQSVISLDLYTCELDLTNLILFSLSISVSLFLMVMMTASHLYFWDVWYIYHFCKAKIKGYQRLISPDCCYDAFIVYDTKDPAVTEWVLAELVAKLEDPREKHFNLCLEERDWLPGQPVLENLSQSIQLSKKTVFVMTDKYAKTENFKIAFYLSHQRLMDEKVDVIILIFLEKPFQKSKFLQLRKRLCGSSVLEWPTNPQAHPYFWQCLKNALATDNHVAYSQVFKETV
How it was run: (§1)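 HEK-Blue cells overexpressing the receptor, with NF-κB/AP-1-driven SEAP, were pre-treated 30 min at room temperature with compound (0.05 nM–50 μM), then stimulated with gardiquimod 7.5 μM (TLR7), R848 15.9 μM (TLR8) or ODN2006 5 nM (TLR9). SEAP was read after 22 h at 37 °C as percent inhibition.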

[2] = target: T2, human TLR9 (Homo sapiens, UniProt Q9NR96); assay: TLR9 inhibition reporter assay (HEK-Blue cells, SEAP reporter, ODN2006 stimulation); conditions: HEK-Blue cells overexpressing human TLR9, SEAP reporter, ODN2006 5 nM
T2 construct: host or cells: HEK-Blue cells (HEK293-derived reporter line)
T2 sequence (Q9NR96 26-1032): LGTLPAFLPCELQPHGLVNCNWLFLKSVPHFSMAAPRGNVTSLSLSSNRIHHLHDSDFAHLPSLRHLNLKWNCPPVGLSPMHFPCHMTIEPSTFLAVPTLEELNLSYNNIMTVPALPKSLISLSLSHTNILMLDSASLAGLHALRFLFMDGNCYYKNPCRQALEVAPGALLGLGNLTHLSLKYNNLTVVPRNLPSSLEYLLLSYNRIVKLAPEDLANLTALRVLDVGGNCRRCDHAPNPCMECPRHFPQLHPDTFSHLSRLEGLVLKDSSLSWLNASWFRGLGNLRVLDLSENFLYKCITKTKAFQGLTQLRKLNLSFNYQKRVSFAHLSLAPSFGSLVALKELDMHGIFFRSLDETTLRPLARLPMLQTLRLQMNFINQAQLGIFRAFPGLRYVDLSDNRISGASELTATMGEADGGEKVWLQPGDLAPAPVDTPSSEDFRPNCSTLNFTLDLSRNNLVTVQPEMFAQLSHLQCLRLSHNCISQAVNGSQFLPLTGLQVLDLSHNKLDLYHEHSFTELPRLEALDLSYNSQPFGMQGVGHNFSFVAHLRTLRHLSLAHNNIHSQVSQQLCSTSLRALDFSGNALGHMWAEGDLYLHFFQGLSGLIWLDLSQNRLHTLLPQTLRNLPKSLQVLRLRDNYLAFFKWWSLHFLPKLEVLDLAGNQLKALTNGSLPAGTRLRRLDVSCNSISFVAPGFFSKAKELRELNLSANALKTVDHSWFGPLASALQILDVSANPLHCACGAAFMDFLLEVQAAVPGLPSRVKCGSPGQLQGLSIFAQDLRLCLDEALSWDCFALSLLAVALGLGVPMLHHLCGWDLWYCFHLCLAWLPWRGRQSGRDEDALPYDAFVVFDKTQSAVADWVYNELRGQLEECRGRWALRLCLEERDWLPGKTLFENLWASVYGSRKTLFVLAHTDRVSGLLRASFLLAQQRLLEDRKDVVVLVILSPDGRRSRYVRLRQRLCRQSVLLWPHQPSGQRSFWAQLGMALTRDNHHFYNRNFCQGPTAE
How it was run: as §1

[3] = target: T3, human TLR8 (Homo sapiens, UniProt Q9NR97); assay: TLR8 inhibition reporter assay (HEK-Blue cells, SEAP reporter, R848 stimulation); conditions: HEK-Blue cells overexpressing human TLR8, SEAP reporter, R848 15.9 μM
T3 construct: host or cells: HEK-Blue cells (HEK293-derived reporter line)
T3 sequence (Q9NR97 27-1041): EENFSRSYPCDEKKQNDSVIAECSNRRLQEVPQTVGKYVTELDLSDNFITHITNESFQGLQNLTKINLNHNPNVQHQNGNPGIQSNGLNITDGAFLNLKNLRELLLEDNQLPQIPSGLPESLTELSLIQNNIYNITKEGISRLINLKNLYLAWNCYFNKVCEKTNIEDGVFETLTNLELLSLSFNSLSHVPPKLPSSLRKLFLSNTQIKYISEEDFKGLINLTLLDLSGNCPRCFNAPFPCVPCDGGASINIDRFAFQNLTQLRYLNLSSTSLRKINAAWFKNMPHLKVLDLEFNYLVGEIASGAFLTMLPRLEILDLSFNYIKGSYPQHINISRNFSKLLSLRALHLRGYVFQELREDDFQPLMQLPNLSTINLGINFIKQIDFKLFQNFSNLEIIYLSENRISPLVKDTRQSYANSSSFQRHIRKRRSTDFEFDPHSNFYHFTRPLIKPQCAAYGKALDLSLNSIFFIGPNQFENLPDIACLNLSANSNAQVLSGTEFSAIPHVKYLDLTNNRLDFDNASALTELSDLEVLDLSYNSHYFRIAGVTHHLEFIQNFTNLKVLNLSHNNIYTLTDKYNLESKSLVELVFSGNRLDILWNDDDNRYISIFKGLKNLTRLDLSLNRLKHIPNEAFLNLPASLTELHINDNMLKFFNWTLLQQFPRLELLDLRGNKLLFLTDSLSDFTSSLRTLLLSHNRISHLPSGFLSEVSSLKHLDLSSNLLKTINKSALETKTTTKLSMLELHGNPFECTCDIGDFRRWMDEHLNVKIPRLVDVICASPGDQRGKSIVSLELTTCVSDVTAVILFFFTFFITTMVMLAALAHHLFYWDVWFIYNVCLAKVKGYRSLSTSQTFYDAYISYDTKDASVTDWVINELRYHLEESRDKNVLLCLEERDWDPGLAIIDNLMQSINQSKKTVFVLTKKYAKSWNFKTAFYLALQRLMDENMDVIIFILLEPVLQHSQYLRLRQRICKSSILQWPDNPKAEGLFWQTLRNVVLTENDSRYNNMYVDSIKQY
How it was run: as §1

| SMILES | IC50 [1] [nM] | IC50 [2] [nM] | IC50 [3] [nM] |
| --- | --- | --- | --- |
| CNCC(=O)N1CCC(c2ccc3[nH]c(-c4cc(OC)c5nccn5c4)c(C(C)C)c3c2)CC1 [Example 559, 1-(4-(3-isopropyl-2-(8-methoxyimidazo[1,2-a]pyridin-6-yl)-1H-indol-5-yl)piperidin-1-yl)-2-(methylamino)ethan-1-one] | < 100 | 100 to 1000 | < 100 |
| Cc1cc(-c2[nH]c3ccc(C4CCN(CC#N)CC4)cc3c2C(C)C)cc2cnnn12 [Example 964, 2-(4-(3-isopropyl-2-(7-methyl-[1,2,3]triazolo[1,5-a]pyridin-5-yl)-1H-indol-5-yl)piperidin-1-yl)acetonitrile] | < 100 | 100 to 1000 | < 100 |
| CC(C)c1c(-c2ccnc3[nH]ncc23)[nH]c2ccc(C3CCN(Cc4ccc(OCCCN(C)C)cc4)CC3)cc12 [Example 965, 3-(4-((4-(3-isopropyl-2-(1H-pyrazolo[3,4-b]pyridin-4-yl)-1H-indol-5-yl)piperidin-1-yl)methyl)phenoxy)-N,N-dimethylpropan-1-amine] | < 100 | 100 to 1000 | < 100 |
| CC(C)c1c(-c2ccc3nccn3c2)[nH]c2ccc(C3CCN(C(C)C)CC3)cc12 [Example 946, 6-(3-isopropyl-5-(1-isopropylpiperidin-4-yl)-1H-indol-2-yl)imidazo[1,2-a]pyridine] | < 100 | 100 to 1000 | < 100 |
| Cc1cc(-c2[nH]c3ccc(C4CCN(C(=O)CN5CCOCC5)CC4)cc3c2C(C)C)cn2nnnc12 [Example 476, 1-(4-(3-isopropyl-2-(8-methyltetrazolo[1,5-a]pyridin-6-yl)-1H-indol-5-yl)piperidin-1-yl)-2-morpholinoethan-1-one] | < 100 | 1000 to 50000 | < 100 |
| CC(C)c1c(-c2cc(CO)c3nnnn3c2)[nH]c2ccc(C3CCN(CC4(C)COC4)CC3)cc12 [Example 781, (6-(3-isopropyl-5-(1-((3-methyloxetan-3-yl)methyl)piperidin-4-yl)-1H-indol-2-yl)tetrazolo[1,5-a]pyridin-8-yl)methanol] | < 100 | 1000 to 50000 | < 100 |
| CNC(=O)CN1CCC(c2ccc3[nH]c(-c4cn5nnnc5cc4C)c(C(C)C)c3c2)CC1 [Example 316, 2-(4-(3-isopropyl-2-(7-methyltetrazolo[1,5-a]pyridin-6-yl)-1H-indol-5-yl)piperidin-1-yl)-N-methylacetamide] | < 100 | 1000 to 50000 | 100 to 1000 |
| CNCCN1CCC(c2ccc3[nH]c(-c4ccc5nccnc5c4)c(C)c3c2)CC1 [Example 658] | 1000 to 50000 | 100 to 1000 | 1000 to 50000 |
| CC(C)c1c(-c2cnc3ncnn3c2)[nH]c2ccc(C3CCN(CC(C)(C)O)CC3)cc12 [Example 773, 1-(4-(2-([1,2,4]triazolo[1,5-a]pyrimidin-6-yl)-3-isopropyl-1H-indol-5-yl)piperidin-1-yl)-2-methylpropan-2-ol] | 100 to 1000 | 1000 to 50000 | < 100 |

Further lines, results first:

| IC50 [1] [nM] | IC50 [2] [nM] | IC50 [3] [nM] | SMILES |
| --- | --- | --- | --- |
| < 100 | 1000 to 50000 | < 100 | CC(C)c1c(-c2ccnc3[nH]ncc23)[nH]c2ccc(C3CCNCC3F)cc12 (stereo not drawn) [Example 172, 4-(5-(3-fluoropiperidin-4-yl)-3-isopropyl-1H-indol-2-yl)-1H-pyrazolo[3,4-b]pyridine] |
| < 100 | 100 to 1000 | < 100 | FC(F)Cc1c(-c2ccnc3[nH]ccc23)[nH]c2ccc(C3CCNCC3)cc12 [Example 205, 4-(3-(2,2-difluoroethyl)-5-(piperidin-4-yl)-1H-indol-2-yl)-1H-pyrrolo [2,3-b]pyridine] |
| < 100 | 100 to 1000 | 100 to 1000 | CC(C)c1c(-c2ccc3nccn3c2)[nH]c2ccc(C3CCNCC3)cc12 [Example 188, 6-(3-isopropyl-5-(piperidin-4-yl)-1H-indol-2-yl)imidazo[1,2-a]pyridine] |
| 100 to 1000 | 1000 to 50000 | > 3130 | CC(C)c1c(-c2nc3c(N)ncnc3[nH]2)[nH]c2ccc(C3CCNCC3)cc12 [Example 8, 8-(3-isopropyl-5-(piperidin-4-yl)-1H-indol-2-yl)-9H-purin-6-amine] |
| 100 to 1000 | 1000 to 50000 | 100 to 1000 | CC(C)c1c(-c2ccnc3[nH]ncc23)[nH]c2ccc(C3CCN(C(=O)c4cn[nH]c4)CC3)cc12 [Example 610, (4-(3-isopropyl-2-(1H-pyrazolo[3,4-b]pyridin-4-yl)-1H-indol-5-yl)piperidin-1-yl)(1H-pyrazol-4-yl)methanone] |
| 1000 to 50000 | 1000 to 50000 | 100 to 1000 | COc1c[nH]c2nccc(-c3[nH]c4ccc(C5CCNCC5)cc4c3C)c12 [Example 213, 3-methoxy-4-(3-methyl-5-(piperidin-4-yl)-1H-indol-2-yl)-1H-pyrrolo[2,3-b]pyridine] |
